The structures appear in SMILES notation.

These results are taken from PMC11641860 (International Journal of Molecular Sciences, 2024).

The test system of one data set is Caco-2 cells. In words: cells. Type of data set: cell-based. The settings on record: Homo sapiens; Caco-2, treated for 24 h, mean (SE); read-out: calculated IC50. How it is done:
(§1) To evaluate cell viability, an MTT assay was performed. […] Cell viability was directly proportional to registered absorbance and was expressed as relative viability with respect to vehicle-treated cells.

The subject of the next data set is HEK 293 cells. The experiment in a line: cells. Type of data set: cell-based. The settings on record: Homo sapiens, HEK293; HEK 293, treated for 24 h, mean (SE); read-out: calculated IC50. The procedure: as §1
Another data set concerns HaCat cells. The experiment in a line: cells. Type of data set: cell-based. To be noted: Homo sapiens, treated for 24 h, mean (SE), read-out: calculated IC50. How it is done: as §1
In data set [1] the test system is HepG2 cells. In words: cells. Type of data set: cell-based. To be noted: Homo sapiens; HepG2, treated for 24 h, mean (SE); read-out: calculated IC50. How it is done:
as §1

A further data set has as its system MRC5 cells. The experiment in a line: cells. Type of data set: cell-based. To be noted: Homo sapiens; MRC5, treated for 24 h, mean (SE); read-out: calculated IC50. The procedure: as §1
In the next data set the test system is p53. The experiment in a line: Western blot of p53. Type of data set: cell-based, human. The settings on record: HepG2, 24 h, higher concentrations used. The procedure:
(§2) Western blot analyses were performed to detect protein levels and the expression of several proteins after treatments with 4-OP. After treatments, cells were mechanically harvested and lysed in a buffer containing the following: 20 mM Tris-HCl, pH 7.5, 150 mM NaCl, 1 mM EDTA, 1 mM dithiothreitol, 0.1% sodium dodecyl sulfate, 1% Triton X-100, 1 mM orthovanadate and an inhibitor cocktail (all from Merck). The protein mixtures were resolved in a polyacrylamide denaturant gel and then electrotransferred to a polyvinylidene difluoride (PVDF) membrane (Microtech, Naples, Italy) by using the Trans-Blot Turbo Transfer System (Bio-Rad Laboratories, Milan, Italy). After a blocking step with 5% skimmed milk in Tris-buffered saline (TBS), membranes were incubated with the following primary antibodies, diluted 1:1000 in T-TBS-1% milk: mouse anti-p53 (Santa Cruz, CA, USA); mouse anti-GRP78 (Invitrogen, Milan, Italy); rabbit anti-LC3 (Invitrogen); mouse anti-caspase 3 (Invitrogen); mouse anti-p62 (Invitrogen); rabbit anti-SOD (Elabscience, Houston, TX, USA); rabbit anti-CAT (Elabscience). For normalization, a mouse anti-GAPDH (Santa Cruz) diluted 1:4000 in T-TBS-1% milk was used.

In data set [2] the test system is HepG2 cells. The experiment in a line: Apoptosis: cleaved caspase 3 Western blot and TUNEL assay. Type of data set: cell-based, human. The settings on record: HepG2, caspase-3 8 h, TUNEL 24 h. How it is done: as §2
Microscope observation and image acquisition were performed as described above.

A further data set deals with XBP1. In words: XBP1 splicing detection by conventional PCR. Type of data set: cell-based, human. To be noted: HepG2, 4 h, 100 μM. How it is done:
To obtain cDNA, 1 μg of RNA was retro-transcribed employing the QuantiTect Reverse Transcription Kit (Qiagen, Milan, Italy). Finally, a conventional PCR was performed to amplify the unspliced and the spliced form for XBP1, with the following primers: 5′-[…]-3′ and 5′-[…]-3′, as previously reported. Amplified cDNA was run on a 2.5% agarose gel and stained with ethidium bromide.

The subject of data set [3] is GRP78. The experiment in a line: Western blot of GRP78 in HepG2 cells. To be noted: HepG2, 24 h, higher induction at 100 μM. Type of data set: cell-based, human. How it is done: as §2
Data set [4] deals with GRP78. In words: Western blot of GRP78 in MRC5 cells. Type of data set: cell-based, human. The settings on record: MRC5, 24 h. How it is done: as §2
Data set [5] concerns GRP78. The experiment in a line: Western blot of GRP78 in Caco-2 cells. Type of data set: cell-based, human. To be noted: Caco-2, 24 h. How it is done:
as §2

A further data set concerns p62, LC3-II. In words: Western blot of autophagic markers p62 and LC3-II. Type of data set: cell-based, human. The procedure:
as §2

The test system of data set [6] is HepG2 cells. In words: LC3 immunofluorescence staining. Type of data set: cell-based, human. To be noted: HepG2, 24 h, compared with vehicle. The procedure:
Then, coverslips were incubated for 1 h with the anti-LC3 rabbit antibody (1:100, in 1% bovine albumin serum) and then with an anti-rabbit tetramethylrhodamine-conjugated antibody (1:100, in 0.1% bovine serum albumin) (Thermo Fisher Scientific). After washing, coverslips were mounted with Mowiol and observed with an Olympus CKX41 fluorescent microscope (Olympus Italia srl, Segrate, Italy) and processed with the Olympus CKX41 software (cellSens Dimension 1.5).

The subject of a further data set is CAT, SOD. In words: Western blot of CAT and SOD. Type of data set: cell-based, human. How it is done: as §2
Another data set relates to type 2 transglutaminase. The experiment in a line: Type 2 transglutaminase activity in Caco-2 cells in Ca2+-free condition. Type of data set: cell-based, human. The settings on record: Caco-2, Ca2+-free condition, preliminary. The text has this:
It has often been reported that apoptosis induced by EDCs can be caused by an unsolved ER-stress.

Take `CCCCCCCCCc1ccc(O)cc1` [4-NP, 4-nonylphenol]: the IC50 with Caco-2 cells is 93.3 µM; in the data set with HEK 293 cells, 62.6 µM; with HaCat cells it was 77.4 µM; in the data set with HepG2 cells [1], 83.3 µM; in the data set with MRC5 cells, 75.8 µM.
For the molecule `CCCCCCCCc1ccc(O)cc1` [4-OP, 4-octylphenol], in the data set with p53, the p53 expression result was “decreased”. The “apoptosis (cleaved caspase 3, chromatin fragmentation)” value with HepG2 cells [2] is recorded as “able to induce apoptosis”. The XBP1 spliced form entry in the data set with XBP1 is given as “splicing was clear”. In addition, the GRP78 expression entry in the data set with GRP78 [3] is given as “increase in a dose-dependent manner”; in the data set with GRP78 [4], “markedly induced”; in the data set on GRP78 [5], “less evident”. Also, the p62 level entry in the data set with p62, LC3-II (HepG2, 4 h) is given as “decreased”. Also, in the data set on p62, LC3-II (HepG2, 4 h 4-OP then further 20 h Baf A1 50 nM), the “LC3-II level on adding Baf A1” value was “further accumulation of LC3-II”. Besides, the LC3-II level result in the data set on p62, LC3-II (HepG2, 24 h) is “increased”. Further, the “autophagosomes (LC3 perinuclear puncta)” value in the data set on HepG2 cells [6] was “accumulation of autophagosomes”. Further, the CAT level result with CAT, SOD (HepG2, 4 h) is reported as “did not vary”. For the same molecule, the SOD level result in the data set on CAT, SOD (HepG2, 4 h, 100 μM) is “reduction”. Besides, the SOD expression level entry was “lower” in the data set on CAT, SOD (HepG2, 18 h, 25 μM, vs vehicle-treated cells) and “increased” in the data set on CAT, SOD (HepG2, 18 h, 50 μM). Also, in the data set on CAT, SOD (HepG2, 18 h, 50 μM, compared to the control), the CAT protein level entry is recorded as “significantly more expressed”.
As to `C[C@H](CCC(=O)O)C[C@H](C)C[C@H](C)C(=O)/C=C(\O)[C@H](C)C[C@H](C)C/C=C/[C@@H](C)[C@@H](O)[C@@H](C)[C@@H](O)C[C@@H]1CC[C@@](C)([C@H]2CC[C@@](C)([C@@H](C)O)O2)O1` [ionomycin], the “increase of transglutaminase activity” value with type 2 transglutaminase is given as “did not increase”.
